From ChEMBL document CHEMBL5338739, “Discovery of Dual Lysine Methyltransferase G9a and EZH2 Inhibitors with In Vivo Efficacy against Malignant Rhabdoid Tumor” (J Med Chem, 2023)
Activity calls are given as the source filed them. No cut-off for these calls is given here.

Tests used:
[1] = molecular target: T1, N-lysine methyltransferase KMT5A (Homo sapiens) (UniProt Q9NQR1); test: Inhibition of SETD8 (unknown origin) using SAM as substrate at 10 uM by time-resolved fluorescence assay relative to control
T1 sequence (whole entry): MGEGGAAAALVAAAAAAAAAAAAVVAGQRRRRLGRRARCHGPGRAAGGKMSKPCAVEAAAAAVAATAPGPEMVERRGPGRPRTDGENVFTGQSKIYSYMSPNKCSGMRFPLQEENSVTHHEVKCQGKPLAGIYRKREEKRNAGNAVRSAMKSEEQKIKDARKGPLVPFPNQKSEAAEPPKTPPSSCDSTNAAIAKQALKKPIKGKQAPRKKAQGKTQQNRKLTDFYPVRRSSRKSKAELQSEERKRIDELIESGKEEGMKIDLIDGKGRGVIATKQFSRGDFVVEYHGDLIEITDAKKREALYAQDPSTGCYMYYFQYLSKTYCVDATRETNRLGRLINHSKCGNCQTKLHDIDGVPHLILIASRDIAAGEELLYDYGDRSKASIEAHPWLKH

[2] = Cmax in Sprague-Dawley rat at 10 mg/kg, iv administered for 12 hrs by HPLC analysis; type: ADME, organism-based; parameters: dose 10 mg/kg, time 12 hrs, route iv; settings: in vivo
[3] = Half life in Sprague-Dawley rat at 30 mg/kg, po administered for 24 hrs by HPLC analysis; type: ADME, organism-based; settings: in vivo
[4] = AUC (0 to 24 hrs) in Sprague-Dawley rat at 30 mg/kg, po administered for 24 hrs by HPLC analysis; type: ADME, organism-based; parameters: time 24 hrs, dose 30 mg/kg, route po; settings: in vivo
[5] = molecular target: T2, Histone-lysine N-methyltransferase EHMT2 (Homo sapiens) (UniProt Q96KQ7); test: Binding affinity to recombinant EHMT2 G9a in human RD cells assessed as decrease in […] incubated for 1 hr by DARTS analysis; type: cell-based; settings: dose 5-20 µM
T2 sequence (whole entry): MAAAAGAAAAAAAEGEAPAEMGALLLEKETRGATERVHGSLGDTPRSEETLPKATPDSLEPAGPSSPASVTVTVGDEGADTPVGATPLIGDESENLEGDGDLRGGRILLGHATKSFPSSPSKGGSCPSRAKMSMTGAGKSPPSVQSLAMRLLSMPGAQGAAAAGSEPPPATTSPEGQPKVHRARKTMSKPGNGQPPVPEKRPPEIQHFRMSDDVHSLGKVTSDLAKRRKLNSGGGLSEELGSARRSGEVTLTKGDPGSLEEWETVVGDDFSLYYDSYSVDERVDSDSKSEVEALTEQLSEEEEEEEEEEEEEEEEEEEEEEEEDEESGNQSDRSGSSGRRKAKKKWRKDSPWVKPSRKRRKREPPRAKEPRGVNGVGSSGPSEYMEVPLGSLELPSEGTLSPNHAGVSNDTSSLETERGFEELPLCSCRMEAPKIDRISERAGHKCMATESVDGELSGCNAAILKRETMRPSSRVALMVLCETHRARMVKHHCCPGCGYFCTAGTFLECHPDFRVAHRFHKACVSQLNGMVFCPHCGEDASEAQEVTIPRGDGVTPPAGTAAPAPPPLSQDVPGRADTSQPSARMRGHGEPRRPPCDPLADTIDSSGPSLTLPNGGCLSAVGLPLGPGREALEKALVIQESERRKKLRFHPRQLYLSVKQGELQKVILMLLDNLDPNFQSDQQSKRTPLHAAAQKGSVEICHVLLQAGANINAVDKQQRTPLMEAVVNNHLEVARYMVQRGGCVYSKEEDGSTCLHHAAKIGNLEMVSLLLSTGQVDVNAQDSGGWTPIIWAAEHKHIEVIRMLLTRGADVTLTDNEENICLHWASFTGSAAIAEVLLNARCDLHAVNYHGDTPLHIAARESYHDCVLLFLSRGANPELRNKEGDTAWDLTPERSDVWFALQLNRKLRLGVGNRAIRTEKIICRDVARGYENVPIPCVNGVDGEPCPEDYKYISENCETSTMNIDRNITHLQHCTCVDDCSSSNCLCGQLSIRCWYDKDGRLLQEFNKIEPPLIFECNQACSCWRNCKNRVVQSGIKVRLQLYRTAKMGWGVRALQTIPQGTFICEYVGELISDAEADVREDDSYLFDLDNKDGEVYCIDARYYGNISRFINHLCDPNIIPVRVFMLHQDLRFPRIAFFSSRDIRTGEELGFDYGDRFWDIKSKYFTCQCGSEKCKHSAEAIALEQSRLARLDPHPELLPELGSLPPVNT

[6] = molecular target: T2, Histone-lysine N-methyltransferase EHMT2 (Homo sapiens); test: Binding affinity to recombinant EHMT2 G9a in human RD cells assessed as increase in protein thermal stability at 5 uM incubated for 4 hrs by CETSA based Western blot analysis; type: cell-based
[7] = Toxicity in BALB/c nude mouse xenografted with human RD cells assessed as mortality at 10 to 20 mg/kg, ip administered for 5 consecutive days followed by 2 rest days for 3 weeks; type: organism-based; settings: in vivo, 504 h, dose 10-20 mg/kg

COc1cc2c(NCc3c(C)cc(C)[nH]c3=O)nc(N3CCC(F)(F)CC3)nc2cc1OCCCN1CCCC1
inhibition [1]: 11.2%
Cmax [2]: 1380 ng/mL
half-life [3]: 4.02 h
AUC(0-t) at 24 h [4]: 5350 ng·h/mL
Activity [5]: Dose-Dependent Effect
Activity [6]: Active
Activity [7]: Non-Toxic
